US20120046317A1, “NOVEL HETEROCYCLIC COMPOUNDS” (priority 2009, published 2012)

Experiments:
[1] = system: AGE-LDL formation (Low density lipoprotein incubated with CuCl2); assay: In vitro inhibition of AGE-LDL formation: LDL incubated with CuCl2, MDA-lysine adduct fluorescence; type: biochemical; conditions: LDL with CuCl2 at 37° C.
Description: In vitro Inhibition of AGE-LDL Formation:
Low density lipoprotein (LDL) was incubated with CuCl2 at 37° C. in phosphate buffered saline in the presence and absence of the following compounds. […] Results were expressed as % MDA-lysine adducts accumulation, considering the extent of the same formed upon incubation with CuCl2 alone as 100%.

[2] = system: AGE-BSA Formation (Bovine Serum Albumin incubated with ribose); assay: In vitro prevention of advanced glycation endproducts (AGEs) accumulation: BSA incubated with ribose, fluorescence; conditions: one week
Description: A reduction in fluorescence intensity in the presence of the test compound is an indication of its ability to prevent accumulation of advanced glycation endproducts.
Bovine Serum Albumin was incubated with ribose alone as well as with ribose and different concentrations of the following compounds under aseptic conditions for one week. At the end of the incubation period fluorescence intensity of the samples was measured at excitation and emission wavelengths of 355 nm and 460 nm respectively.

Row | Structure (SMILES) | % Inhibition of AGE-LDL-formation ([1]; Conc. 250 uM) | % Inhibition of AGE-BSA Formation ([2]; Conc. 1 mM) | % Inhibition of AGE-LDL-formation ([1]; Conc. 100 uM) | % Inhibition of AGE-BSA Formation ([2]; Conc. 100 uM) | also measured
1 | CS(=O)(=O)NNC(=O)C1=CN(CC(=O)c2ccc(Cl)s2)C=CC1 [Compound no. 6, 1-[2-(5-chlorothiophen-2-yl)-2-oxoethyl]-N′-(methylsulfonyl)-1,4-dihydropyridine-3-carbohydrazide] | ++++ (++++ indicate >30%) | +++ (+++ indicate 21-30%) | – | – | –
2 | Cc1ccc(C(=O)CN2C=CCC(C(=O)NNS(C)(=O)=O)=C2)s1 [Compound no. 13, N′-(methylsulfonyl)-1-[2-(5-methylthiophen-2-yl)-2-oxoethyl]-1,4-dihydropyridine-3-carbohydrazide] | ++++ (++++ indicate >30%) | +++ (+++ indicate 21-30%) | – | – | –
3 | O=C(CN1C=CCC(C(=O)NCCOC(=O)c2ccccc2)=C1)Nc1ccccc1 [Compound no. 107, 2-[({1-[2-oxo-2-(phenylamino)ethyl]-1,4-dihydropyridin-3-yl}carbonyl)amino]ethyl benzoate] | – | – | + (+ indicate 0-10%) | – | –
4 | CS(=O)(=O)NNC(=O)C1=CN(CC(=O)c2ccc(Br)cc2)C=CC1 [compound 143, 1-[2-(4-bromophenyl)-2-oxoethyl]-N′-(methylsulfonyl)-1,4-dihydropyridine-3-carbohydrazide] | – | – | ++++ (++++ indicate >30%) | + (+ indicate 0-10%) | –
5 | COc1ccc(C(=O)CN2C=CCC(C(=O)NNS(C)(=O)=O)=C2)cc1 [compound 144, 1-[2-(4-methoxyphenyl)-2-oxoethyl]-N′-(methylsulfonyl)-1,4-dihydropyridine-3-carbohydrazide] | ++++ (++++ indicate >30%) | + (+ indicate 0-10%) | – | – | –
6 | Cc1ccc(S(=O)(=O)NNC(=O)C2=CN(CC(=O)Nc3ccccc3)C=CC2)cc1 [compound 145, 2-[3-({2-[(4-methylphenyl)sulfonyl]hydrazinyl}carbonyl)pyridin-1(4H)-yl]-N-phenylacetamide] | + (+ indicate 0-10%) | – | – | – | % Inhibition of AGE-BSA Formation ([2]; Conc. 250 uM): + (+ indicate 0-10%)
7 | Cc1ccc(S(=O)(=O)NNC(=O)C2=CN(CC(=O)c3cccs3)C=CC2)cc1 [compound 147, N′-[(4-methylphenyl)sulfonyl]-1-[2-oxo-2-(thiophen-2-yl)ethyl]-1,4-dihydropyridine-3-carbohydrazide] | – | – | ++++ (++++ indicate >30%) | +++ (+++ indicate 21-30%) | –
8 | O=C(NCCO)C1=CN(CC(=O)c2ccc(Br)cc2)C=CC1 [compound 148, 1-[2-(4-bromophenyl)-2-oxoethyl]-N-(2-hydroxyethyl)-1,4-dihydropyridine-3-carboxamide] | – | + (+ indicate 0-10%) | – | – | –
9 | COc1ccc(C2=CN(CC(=O)c3cccs3)C=C(C(=O)NNS(C)(=O)=O)C2)cc1 [compound 151, 5-(4-methoxyphenyl)-N′-(methylsulfonyl)-1-[2-oxo-2-(thiophen-2-yl)ethyl]-1,4-dihydropyridine-3-carbohydrazide] | – | – | + (+ indicate 0-10%) | + (+ indicate 0-10%) | –
10 | O=C(NCCO)C1=CN(CC(=O)c2cccs2)CCC1 [compound 158, N-(2-hydroxyethyl)-1-[2-oxo-2-(thiophen-2-yl)ethyl]-1,4,5,6-tetrahydropyridine-3-carboxamide] | – | – | + (+ indicate 0-10%) | – | % Inhibition of AGE-BSA Formation ([2]; Conc. 250 uM): + (+ indicate 0-10%)
11 | O=C(CN1CCCC(C(=O)NNS(=O)(=O)c2ccccc2)C1)c1cccs1 (centres unmarked) [compound 160, 1-[2-oxo-2-(thiophen-2-yl)ethyl]-N′-(phenylsulfonyl)piperidine-3-carbohydrazide] | – | – | + (+ indicate 0-10%) | + (+ indicate 0-10%) | –
12 | COc1ccc(C(=O)CN2CCCC(C(=O)NNS(=O)(=O)c3ccc(C)cc3)C2)cc1 (centres unmarked) [compound 162, 1-[2-(4-methoxyphenyl)-2-oxoethyl]-N′-[(4-methylphenyl)sulfonyl]piperidine-3-carbohydrazide] | – | – | ++++ (++++ indicate >30%) | + (+ indicate 0-10%) | –
13 | COc1ccc(C(=O)CN2CCCC(C(=O)NNS(C)(=O)=O)C2)cc1 (centres unmarked) [compound 163, 1-[2-(4-methoxyphenyl)-2-oxoethyl]-N′-(methylsulfonyl)piperidine-3-carbohydrazide] | – | – | + (+ indicate 0-10%) | – | % Inhibition of AGE-BSA Formation ([2]; Conc. 250 uM): + (+ indicate 0-10%)
14 | Cc1ccc(C(=O)CN2CCCC(C(=O)NNS(C)(=O)=O)C2)s1 (centres unmarked) [compound 164, N′-(methylsulfonyl)-1-[2-(5-methylthiophen-2-yl)-2-oxoethyl]piperidine-3-carbohydrazide] | + (+ indicate 0-10%) | + (+ indicate 0-10%) | – | – | –
15 | CC(C)(C)c1ccc(S(=O)(=O)NNC(=O)C2CCCN(CC(=O)c3cccs3)C2)cc1 (centres unmarked) [compound 165, N′-[(4-tert-butylphenyl)sulfonyl]-1-[2-oxo-2-(thiophen-2-yl)ethyl]piperidine-3-carbohydrazide] | – | – | + (+ indicate 0-10%) | + (+ indicate 0-10%) | –
16 | CS(=O)(=O)NNC(=O)C1=CCCN(CC(=O)c2ccc(Br)cc2)C1 [compound 167, 1-[2-(4-bromophenyl)-2-oxoethyl]-N′-(methylsulfonyl)-1,2,5,6-tetrahydropyridine-3-carbohydrazide] | + (+ indicate 0-10%) | + (+ indicate 0-10%) | – | – | –
17 | CS(=O)(=O)NNC(=O)C1=CN(CC(=O)c2ccc(Cl)cc2Cl)C=CC1 [compound 168, 1-[2-(2,4-dichlorophenyl)-2-oxoethyl]-N′-(methylsulfonyl)-1,4-dihydropyridine-3-carbohydrazide] | – | – | + (+ indicate 0-10%) | + (+ indicate 0-10%) | –
18 | O=C(NNS(=O)(=O)c1ccccc1)C1=CCCN(CC(=O)c2cccs2)C1 [compound 169, 1-[2-oxo-2-(thiophen-2-yl)ethyl]-N′-(phenylsulfonyl)-1,2,5,6-tetrahydropyridine-3-carbohydrazide] | – | – | + (+ indicate 0-10%) | + (+ indicate 0-10%) | –
19 | O=C(NNC(=O)C1=CCCN(CC(=O)c2cccs2)C1)Nc1ccc(Cl)cc1 [compound 171, N-(4-chlorophenyl)-2-({1-[2-oxo-2-(thiophen-2-yl)ethyl]-1,2,5,6-tetrahydropyridin-3-yl}carbonyl)hydrazinecarboxamide] | – | – | + (+ indicate 0-10%) | + (+ indicate 0-10%) | –
20 | COc1ccc(C(=O)CN2CCC=C(C(=O)NNS(C)(=O)=O)C2)cc1 [compound 172, 1-[2-(4-methoxyphenyl)-2-oxoethyl]-N′-(methylsulfonyl)-1,2,5,6-tetrahydropyridine-3-carbohydrazide] | – | – | – | – | % Inhibition of AGE-LDL-formation ([1]; Conc. 50 uM): + (+ indicate 0-10%); % Inhibition of AGE-BSA Formation ([2]; Conc. 50 uM): + (+ indicate 0-10%)
21 | COc1ccc(C(=O)CN2CCC=C(C(=O)NNS(=O)(=O)c3ccc(C)cc3)C2)cc1 [compound 173, 1-[2-(4-methoxyphenyl)-2-oxoethyl]-N′-[(4-methylphenyl)sulfonyl]-1,2,5,6-tetrahydropyridine-3-carbohydrazide] | – | – | + (+ indicate 0-10%) | + (+ indicate 0-10%) | –
22 | Cc1ccc(C(=O)CN2CCC=C(C(=O)NNS(C)(=O)=O)C2)s1 [compound 174, N′-(methylsulfonyl)-1-[2-(5-methylthiophen-2-yl)-2-oxoethyl]-1,2,5,6-tetrahydropyridine-3-carbohydrazide] | ++++ (++++ indicate >30%) | + (+ indicate 0-10%) | – | – | –
23 | COc1ccc(C(=O)CN2CC=CC(C(=O)NNS(C)(=O)=O)C2)cc1 (centres unmarked) [compound 181, 1-[2-(4-methoxyphenyl)-2-oxoethyl]-N′-(methylsulfonyl)-1,2,3,6-tetrahydropyridine-3-carbohydrazide] | – | – | + (+ indicate 0-10%) | – | % Inhibition of AGE-BSA Formation ([2]; Conc. 250 uM): + (+ indicate 0-10%)
24 | Cc1ccc(C(=O)CN2CC=CC(C(=O)NNS(C)(=O)=O)C2)s1 (centres unmarked) [compound 182, N′-(methylsulfonyl)-1-[2-(5-methylthiophen-2-yl)-2-oxoethyl]-1,2,3,6-tetrahydropyridine-3-carbohydrazide] | +++ (+++ indicate 21-30%) | + (+ indicate 0-10%) | – | – | –
25 | CS(=O)(=O)NNC(=O)C1=CN(CC(=O)c2cccs2)CCC1 [compound 183, N′-(methylsulfonyl)-1-[2-oxo-2-(thiophen-2-yl)ethyl]-1,4,5,6-tetrahydropyridine-3-carbohydrazide] | ++ (++ indicate 11-20%) | +++ (+++ indicate 21-30%) | – | – | –
26 | CS(=O)(=O)NNC(=O)C1CCCN(CC(=O)c2cccs2)C1 (centres unmarked) [compound 184, N′-(methylsulfonyl)-1-[2-oxo-2-(thiophen-2-yl)ethyl]piperidine-3-carbohydrazide] | +++ (+++ indicate 21-30%) | + (+ indicate 0-10%) | – | – | –
27 | CS(=O)(=O)NNC(=O)C1=CCCN(CC(=O)c2cccs2)C1 [compound 185, N′-(methylsulfonyl)-1-[2-oxo-2-(thiophen-2-yl)ethyl]-1,2,5,6-tetrahydropyridine-3-carbohydrazide] | +++ (+++ indicate 21-30%) | + (+ indicate 0-10%) | – | – | –
28 | CS(=O)(=O)NNC(=O)C1=CN(CC(=O)c2cccs2)CCC1 [compound 187, N′-(methylsulfonyl)-1-[2-oxo-2-(thiophen-2-yl)ethyl]-1,4,5,6-tetrahydropyridine-3-carbohydrazide] | – | + (+ indicate 0-10%) | – | – | –
